# Experimental data: ChEMBL document CHEMBL1201862, “PubChem BioAssay data set” (2004)
# Counter-ions that a name gives are not always drawn.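 48-hour exposure; five concentrations; linearly interpolated endpoints. Here, GI50 denotes the concentration required for 50% inhibition of growth.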 The source made the active and inactive calls. Cut-off read from the data, not from the text of the source: active = GI50 up to about 1.1 µM and inactive = higher. Residues, ends and D or L forms follow the SMILES beside them. *: point of attachment. Boc = CC(C)(C)OC(=O)*
# Tests used:
# Experiment in all cases: inhibition of tumour cell growth, NCI panel, 48 h
# [1] = test system: UACC-62
# [2] = test system: KM12
# [3] = test system: PC-3
# [4] = test system: HCT-15
# [5] = test system: SW-620
# [6] = test system: CAKI-1
# [7] = test system: NCI-H522
# [8] = test system: HOP-92
# [9] = test system: HCC 2998
# [10] = test system: SF-268
# [11] = test system: NCI-H23
# [12] = test system: SK-MEL-28
# [13] = test system: IGROV-1
# [14] = test system: EKVX
# [15] = test system: SNB-75
# [16] = test system: CCRF-CEM
# [17] = test system: ACHN
# [18] = test system: UACC-257
# [19] = test system: RPMI-8226
# [20] = test system: Hs-578T
Compound,GI50 [1],GI50 [2],GI50 [3],GI50 [4] [µM],GI50 [5],GI50 [6],GI50 [7],GI50 [8],GI50 [9],GI50 [10],GI50 [11],GI50 [12],GI50 [13],GI50 [14],GI50 [15],GI50 [16],GI50 [17],GI50 [18],GI50 [19],GI50 [20]
Cc1cc(NS(=O)(=O)c2ccc(NC(=O)c3cccc4c(NNc5ccc(S(N)(=O)=O)cc5)c5ccccc5nc34)cc2)no1,43.4 µM (inactive),38.1 µM (inactive),33.7 µM (inactive),95.1,37.2 µM (inactive),> 100 µM (inactive),25 µM (inactive),22.7 µM (inactive),27.3 µM (inactive),34.9 µM (inactive),64.7 µM (inactive),35.2 µM (inactive),47.3 µM (inactive),33.4 µM (inactive),31.7 µM (inactive),27.9 µM (inactive),39 µM (inactive),> 100 µM (inactive),43.4 µM (inactive),
Cc1nc(N)nc(N)c1CCCCc1ccccc1,5.28 µM (inactive),18.1 µM (inactive),,5.97,13.7 µM (inactive),23.4 µM (inactive),10.2 µM (inactive),22.5 µM (inactive),10.7 µM (inactive),11 µM (inactive),4.29 µM (inactive),> 10 µM (inactive),5.41 µM (inactive),20 µM (inactive),47 µM (inactive),3.72 µM (inactive),9.2 µM (inactive),10.2 µM (inactive),20.8 µM (inactive),
NCCCCN [PUTRESCINE HYDROCHLORIDE],> 100 µM (inactive),16.3 µM (inactive),> 100 µM (inactive),> 100,> 100 µM (inactive),15 µM (inactive),> 100 µM (inactive),> 100 µM (inactive),> 100 µM (inactive),> 100 µM (inactive),> 100 µM (inactive),> 100 µM (inactive),> 100 µM (inactive),> 100 µM (inactive),> 100 µM (inactive),> 100 µM (inactive),> 100 µM (inactive),> 100 µM (inactive),,
CCOc1ccc(N/C(=C(/C(Cl)=C(/Cl)N2CCCCC2)[N+](=O)[O-])n2nnc3ccccc32)cc1,14.4 µM (inactive),14.2 µM (inactive),11.6 µM (inactive),11.1,,9.23 µM (inactive),6.31 µM (inactive),18.2 µM (inactive),21 µM (inactive),17.4 µM (inactive),15.3 µM (inactive),18.5 µM (inactive),,19.3 µM (inactive),19.9 µM (inactive),,16.2 µM (inactive),16.9 µM (inactive),14.7 µM (inactive),
COC(=O)C(Cc1c[nH]c2ccccc12)NC(=O)C(Cc1c[nH]c2ccccc12)NC(=O)C(Cc1c[nH]c2ccccc12)NC(=O)C(Cc1c[nH]c2ccccc12)NC(=O)OC(C)(C)C (stereo not drawn) (Boc-WWWW-OMe; configuration not given here),15.6 µM (inactive),,19.5 µM (inactive),> 100,6.07 µM (inactive),44.3 µM (inactive),25.4 µM (inactive),,20.5 µM (inactive),28.2 µM (inactive),25.1 µM (inactive),18.2 µM (inactive),35.3 µM (inactive),,25.5 µM (inactive),3.78 µM (inactive),57.5 µM (inactive),79.4 µM (inactive),3.95 µM (inactive),
Nc1c(-c2nc3ccccc3[nH]2)sc(=S)n1-c1ccccc1,13.5 µM (inactive),> 100 µM (inactive),,> 100,> 100 µM (inactive),> 100 µM (inactive),77.3 µM (inactive),> 100 µM (inactive),> 100 µM (inactive),> 100 µM (inactive),> 100 µM (inactive),> 100 µM (inactive),> 100 µM (inactive),55.2 µM (inactive),44.8 µM (inactive),26.1 µM (inactive),18.4 µM (inactive),> 100 µM (inactive),34 µM (inactive),
Cc1nc2ccccc2nc1CC(=O)C(=O)Nc1ccc(Cl)cc1Cl,> 100 µM (inactive),> 100 µM (inactive),,> 100,> 100 µM (inactive),> 100 µM (inactive),57.4 µM (inactive),> 100 µM (inactive),> 100 µM (inactive),> 100 µM (inactive),> 100 µM (inactive),> 100 µM (inactive),> 100 µM (inactive),> 100 µM (inactive),> 100 µM (inactive),> 100 µM (inactive),> 100 µM (inactive),> 100 µM (inactive),> 100 µM (inactive),
COc1ccc(-c2c3ccccc3c(-c3ccc(OC)cc3)c3ccccc23)cc1,> 100 µM (inactive),> 100 µM (inactive),,> 100,> 100 µM (inactive),> 100 µM (inactive),> 100 µM (inactive),> 100 µM (inactive),> 100 µM (inactive),> 100 µM (inactive),> 100 µM (inactive),> 100 µM (inactive),> 100 µM (inactive),> 100 µM (inactive),29.5 µM (inactive),> 100 µM (inactive),> 100 µM (inactive),> 100 µM (inactive),> 100 µM (inactive),
Cc1cc(N(CCC#N)CCC#N)ccc1/C(Sc1ccccc1)=C(\NC(=O)/C=C/c1ccccc1)C(=O)Sc1ccccc1,2.82 µM (inactive),3.14 µM (inactive),,3.73,4.12 µM (inactive),2.05 µM (inactive),0.587 µM (active),2.92 µM (inactive),11.4 µM (inactive),0.565 µM (active),2.22 µM (inactive),4.99 µM (inactive),0.805 µM (active),6.18 µM (inactive),2.13 µM (inactive),0.271 µM (active),4.75 µM (inactive),5.53 µM (inactive),0.991 µM (active),
COc1ccccc1N1C(=O)/C(=C\c2cc(OC)c(OC)c(OC)c2)S(=O)(=O)C1c1ccccc1 (stereo not drawn),29.9 µM (inactive),28.6 µM (inactive),,29.5,30 µM (inactive),53.3 µM (inactive),17 µM (inactive),33.3 µM (inactive),79.4 µM (inactive),44.4 µM (inactive),33.9 µM (inactive),27.4 µM (inactive),,,,15.6 µM (inactive),41.2 µM (inactive),70.1 µM (inactive),20.5 µM (inactive),32.7 µM (inactive)
COc1ccc(NC(=O)/C(=C/c2ccccc2)C(C)=O)cc1,7.89 µM (inactive),12.4 µM (inactive),,13.2,16.2 µM (inactive),15.4 µM (inactive),1.73 µM (inactive),15.8 µM (inactive),18.9 µM (inactive),15.2 µM (inactive),> 10 µM (inactive),12.9 µM (inactive),17.5 µM (inactive),22.5 µM (inactive),7.11 µM (inactive),6.12 µM (inactive),20.7 µM (inactive),13.3 µM (inactive),5.24 µM (inactive),
